Experimental data from paper PMC4453552 (mBio, 2015).
Where two headings read alike, the source gives them in different places. One block for each molecule: values may come before it.

Legend:
N-Flo5p = conditions: cited from earlier work
N-Flo1p [1] = molecular target: T1, N-Flo1p (Saccharomyces cerevisiae, UniProt P32768); test: Fluorescence titration of carbohydrates with nonglycosylated N-Flo1p; type: binding
T1 sequence (P32768 23-271): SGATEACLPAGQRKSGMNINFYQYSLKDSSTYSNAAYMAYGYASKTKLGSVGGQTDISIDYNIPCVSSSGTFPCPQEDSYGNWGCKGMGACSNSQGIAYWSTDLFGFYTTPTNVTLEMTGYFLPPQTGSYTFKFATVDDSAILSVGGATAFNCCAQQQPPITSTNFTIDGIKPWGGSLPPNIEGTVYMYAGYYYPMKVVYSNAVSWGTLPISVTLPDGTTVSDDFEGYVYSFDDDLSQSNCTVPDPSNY

N-Lg-Flo1p [2] = molecular target: T2, N-Lg-Flo1p (Saccharomyces pastorianus, UniProt B3IUB3, P58Q); conditions: cited from earlier work
T2 sequence (B3IUB3 23-213 P58Q): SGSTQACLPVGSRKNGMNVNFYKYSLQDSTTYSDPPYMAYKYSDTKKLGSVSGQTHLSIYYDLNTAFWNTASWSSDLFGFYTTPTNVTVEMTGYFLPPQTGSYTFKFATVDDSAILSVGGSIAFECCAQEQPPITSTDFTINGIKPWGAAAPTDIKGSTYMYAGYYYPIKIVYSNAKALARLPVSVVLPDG

N-Flo1p [3] = molecular target: T3, N-Flo1p (Saccharomyces cerevisiae, UniProt P32768); test: AFM force spectroscopy of glycosylated N-Flo1p self-binding; conditions: Tris solution with 20 mM EDTA and 100 mM mannose
T3 sequence (P32768 25-271 limits assumed): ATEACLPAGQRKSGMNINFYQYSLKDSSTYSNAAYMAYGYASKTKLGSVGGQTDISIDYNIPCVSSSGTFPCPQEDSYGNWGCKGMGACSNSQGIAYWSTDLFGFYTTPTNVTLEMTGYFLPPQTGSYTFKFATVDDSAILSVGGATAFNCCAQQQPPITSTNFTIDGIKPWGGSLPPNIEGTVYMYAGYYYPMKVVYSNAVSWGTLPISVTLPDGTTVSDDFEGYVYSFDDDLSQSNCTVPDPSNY

N-Lg-Flo1p [4] = molecular target: T2, N-Lg-Flo1p; test: Fluorescence titration of carbohydrates with N-Lg-Flo1p; type: binding; conditions: construct from the CBS1513 strain
N-Flo1p [5] = molecular target: T3, N-Flo1p; test: N-Flo1p self-binding by surface plasmon resonance; conditions: SPR, in the presence of Ca2+
[6] = read-out: Equilibrium dissociation constant (KD) N-Flo1p, fluorescence titration, nonglycosylated N-Flo1p, this work (footnote a)

Molecule: OC[C@H]1OC(O)[C@H](O)[C@@H](O)[C@@H]1O (some centres unmarked) [Glc, glucose]
Binding to N-Flo5p, in words (N-Flo5p): very weakly
Affinity / interaction with N-Flo1p, in words (N-Flo1p [1]; fluorescence titration): very weakly

Molecule: O=P(O)(O)OC1O[C@H](CO)[C@@H](O)[C@H](O)[C@@H]1O (some centres unmarked) [mannose-1-phosphate]
Affinity for N-Lg-Flo1p, in words (N-Lg-Flo1p [2]): micromolar-affinity

Molecule: O=C(O)CN(CCN(CC(=O)O)CC(=O)O)CC(=O)O [EDTA]
Effect on unbinding events of N-Flo1p self-binding (N-Flo1p [3]): longer-distance events disappeared almost completely

Molecule: OC[C@H]1OC(O)[C@@H](O)[C@@H](O)[C@@H]1O (stereo partly drawn) [M (Man), D-mannose]
Kd (N-Flo1p [1]): 8.7 ± 0.43 mM
Affinity / interaction with N-Flo1p, in words (N-Flo1p [1]; fluorescence titration, listed as D-mannose): low-millimolar range
Affinity / interaction with N-Flo1p, in words (N-Flo1p [1]; fluorescence titration, listed as mannose): millimolar range
KD range for N-Lg-Flo1p, in words (N-Lg-Flo1p [4]): high micromolar range

Second part, led by results:

Kd (N-Flo1p [1]; [6]): 6.9 ± 0.64 mM
Molecule: OC[C@H]1O[C@H](OC[C@H]2OC(O)[C@@H](O)[C@@H](O)[C@@H]2O)[C@@H](O)[C@@H](O)[C@@H]1O (stereo partly drawn) [Mα-1,6-M, α-1,6-linked mannobiose]
Binding to N-Flo5p, in words (N-Flo5p): No binding

Kd (N-Flo1p [1]; [6]): 3.3 ± 0.34 mM
Molecule: OC[C@H]1O[C@H](O[C@H]2[C@H](O)[C@@H](CO)OC(O)[C@H]2O)[C@@H](O)[C@@H](O)[C@@H]1O (stereo partly drawn) [Mα-1,3-M, α-1,3-linked mannobiose]
Binding to N-Flo5p, in words (N-Flo5p): No binding

Fold difference in binding between the mono- and disaccharides (N-Flo1p) (N-Flo1p [1]; α-1,2-mannobiose versus D-mannose): 10 fold
Molecule: OC[C@H]1O[C@H](O[C@@H]2C(O)O[C@H](CO)[C@@H](O)[C@@H]2O)[C@@H](O)[C@@H](O)[C@@H]1O (stereo partly drawn) [Mα-1,2-M, α-1,2-mannobiose]

Binding of N-deglycosylated N-Flo1p to immobilized N-deglycosylated N-Flo1p (N-Flo1p [5]): almost no binding
B1: N-deglycosylated N-Flo1p: N-Flo1p after removal of the N-glycans with endo-β-N-acetylglucosaminidase H (protein)
chain: T1 sequence (P32768 23-271)
modifications: N-glycans removed with EndoH (GlcNAc residues remain); O-glycans (5 or 6 mannoses) present
